The results in this text go back to US7087623B2, “Thiazole and other heterocyclic ligands for mammalian dopamine, muscarinic and serotonin receptors and transporters, and methods of use thereof” (Sepracor Inc., priority 2001, dated 2006).

In general, IC50 refers to the point on the concentration scale where inhibition reaches its midpoint.

Like-named read-outs stand apart in the source and are kept apart here.

Experiment [1] concerns the target T1, human muscarinic M4 receptor (Homo sapiens, UniProt P08173).
T1 construct: expressed in transfected cells; host or cells: BSR-M4H
T1 sequence (P08173 1-479): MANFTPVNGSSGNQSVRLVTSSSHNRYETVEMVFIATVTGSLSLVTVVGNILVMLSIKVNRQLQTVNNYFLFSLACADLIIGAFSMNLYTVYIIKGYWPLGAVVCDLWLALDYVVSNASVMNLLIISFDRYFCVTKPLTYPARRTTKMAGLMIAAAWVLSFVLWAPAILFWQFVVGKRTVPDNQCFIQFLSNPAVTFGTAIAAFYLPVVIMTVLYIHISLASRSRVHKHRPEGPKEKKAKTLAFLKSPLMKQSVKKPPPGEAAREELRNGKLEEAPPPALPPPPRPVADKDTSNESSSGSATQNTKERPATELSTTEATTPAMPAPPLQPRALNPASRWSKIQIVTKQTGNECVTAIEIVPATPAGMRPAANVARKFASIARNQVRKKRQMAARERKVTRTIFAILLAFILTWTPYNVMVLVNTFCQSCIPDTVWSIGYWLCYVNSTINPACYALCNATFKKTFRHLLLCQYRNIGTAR
As to the kind of experiment: Binding to human muscarinic M4 receptors ([3H]N-methylscopolamine). How it is done:
(§1) This assay measures binding of [^3H]N-methylscopolamine to human muscarinic M4 receptors. BSR-M4H cells transfected with a plasmid encoding the human muscarinic M4 receptor were used to prepare membranes in modified Tris-HCl pH 7.4 buffer using standard techniques. A 5 μg aliquot of membrane was incubated with 0.29 nM [^3H]N-methylscopolamine for 60 minutes at 25° C. Non-specific binding was estimated in the presence of 1 μM atropine. Membranes were filtered and washed 3 times and the filters are counted to determine [^3H]N-methylscopolamine specifically bound. See Buckley, N. J., Bonner, T. I., Buckley, C. M. and Brann, M. R. Antagonist binding properties of five cloned muscarinic receptors expressed in CHO-K1 cells. Mol. Pharmacol. 35: 469–476, 1989.
(§2) The human 5-HT2a and 5-HT2b screens were conducted according to Bonhaus, D. W. et al. Br. J. Pharmacol. 1995, 115, 622. The human […], W. A. et al. J. Neurochem. 1997, 69, 1449. The human 5-HT6 screen was conducted according to Monsama, F. J. et al. Mol. Pharmacol. 1993, 43, 320. The assay to human D3 receptors was conducted according to Sokoloff, P. et al. Nature 1990, 347;146. The human dopamine transporter assay was conducted according to Gu, H. et. al. J. Biol. Chem. 1994, 269 (10);7124; and Giros, B. et al. Trends. Pharmacol. Sci. 1993, 14: 43. The human muscarinic M1–M4 screens were conducted according to Buckley N. J. et al. Mol. Pharmacol. 1989, 35:469.
(§3) The human dopamine transporter assay was conducted according to Gu, H. et. al. J. Biol. Chem. 1994, 269 (10);7124 and Giros, B. et al. Trends. Pharmacol. Sci. 1993, 14: 43. The human muscarinic M1–M4 screens were conducted according to Buckley N. J. et al. Mol. Pharmacol. 199, 35:469

Experiment [2] has as its target T2, human muscarinic M1 receptor (Homo sapiens, UniProt P11229).
T2 construct: expressed in transfected cells; host or cells: BSR-M1H
T2 sequence (P11229 1-460): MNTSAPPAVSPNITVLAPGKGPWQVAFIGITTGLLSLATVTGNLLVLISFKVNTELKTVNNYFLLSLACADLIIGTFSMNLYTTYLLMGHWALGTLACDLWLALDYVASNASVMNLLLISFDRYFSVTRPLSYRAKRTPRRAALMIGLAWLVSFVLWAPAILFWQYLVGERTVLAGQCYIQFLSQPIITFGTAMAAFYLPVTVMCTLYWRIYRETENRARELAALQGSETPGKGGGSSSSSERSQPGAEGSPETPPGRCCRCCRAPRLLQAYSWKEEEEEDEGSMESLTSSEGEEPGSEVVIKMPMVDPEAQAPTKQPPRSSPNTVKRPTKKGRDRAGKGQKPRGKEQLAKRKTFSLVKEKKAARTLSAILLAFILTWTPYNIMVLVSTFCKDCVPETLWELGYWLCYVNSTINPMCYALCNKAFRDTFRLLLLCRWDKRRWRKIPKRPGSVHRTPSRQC
As to the kind of experiment: Binding to human muscarinic M1 receptors ([3H]N-methylscopolamine). Here is the method:
as §1, with “muscarinic M1” for “muscarinic M4”, “receptors. BSR-M1H” for “receptors. BSR-M4H”, “A 25” for “A 5”, “filters were” for “filters are”, “469–476, 1989; Luthin, G. R. and Wolfe, B. B. Comparison of [^3H]pirenzepine and [^3H]quinuclidinylbenzilate binding to muscarine cholinergic receptors in rat brain. J. Pharmacol. Exp. Ther. 228: 648–665, 1984; and Watson, M., Yamamura, H. I. and Roeske, W. R. A unique regulatory profile and regional distribution of [^3H]pirenzepine binding in the rat provide evidence for distinct M1 and M2 muscarinic receptor subtypes. Life. Sci. 32: 3001–3011, 1983.” for “469–476, 1989.”
as §2, §3

Experiment [3] deals with T3, human serotonin 5-HT2A receptor (Homo sapiens, UniProt P28223).
T3 construct: expressed in transfected cells; host or cells: CHO-K1
The experiment can be described thus: Radioligand binding assay, human 5-HT2A receptors ([3H]Ketanserin).

Setting [4] is: human, Example 101 table, read-out: IC50 (nM) M4.
Setting [5] is: human, Example 101 table, read-out: IC50 (nM) M1.
The mark [6] stands for this setting: human 5-HT2a, Example 16 table, read-out: IC50 (nM) 5-HT2a.
Setting [7] is: human, Example 100 table, read-out: IC50 (nM) M4.
Where [8] appears, read: human, Example 100 table, read-out: IC50 (nM) M1.
[9] abbreviates: human, Example 100 table, read-out: IC50 (nM) 5-HT2A.

T3 sequence (P28223 whole entry): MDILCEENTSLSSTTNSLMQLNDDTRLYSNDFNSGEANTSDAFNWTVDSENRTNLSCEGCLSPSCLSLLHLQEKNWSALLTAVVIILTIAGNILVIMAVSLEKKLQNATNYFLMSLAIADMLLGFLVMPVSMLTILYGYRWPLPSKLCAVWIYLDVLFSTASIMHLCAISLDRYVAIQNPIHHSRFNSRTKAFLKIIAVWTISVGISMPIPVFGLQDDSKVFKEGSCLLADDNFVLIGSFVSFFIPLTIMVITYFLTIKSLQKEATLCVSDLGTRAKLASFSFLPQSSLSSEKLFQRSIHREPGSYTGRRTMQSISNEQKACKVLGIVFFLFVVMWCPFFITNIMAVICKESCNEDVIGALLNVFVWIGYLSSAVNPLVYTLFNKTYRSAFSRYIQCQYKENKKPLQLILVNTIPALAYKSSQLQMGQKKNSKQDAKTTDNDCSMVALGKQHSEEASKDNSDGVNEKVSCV

As for `Clc1ccc(C2(c3csc(N4CCNCC4)n3)CCOCC2)cc1` [Compound 37], the IC50 in experiment [1] (setting [4]) was under 1000 nM; in experiment [2] (setting [5]), under 500 nM; in experiment [3] (setting [6]), under 1000 nM.

Regarding `CN1CCCC1CCNc1nc(C2(c3ccccc3F)CCCCC2)cs1` (racemic) [Compound 128, {4-[1-(2-fluorophenyl)-cyclohexyl]-thiazol-2-yl}-[2-(1-methyl-pyrrolidin-2-yl)-ethyl]-amine], the IC50 in experiment [1] (setting [7]) is under 1000 nM; in experiment [2] (setting [8]), under 1000 nM; in experiment [3] (setting [9]), under 100 nM.

In the case of `CN1CCN(c2nc(C3(c4ccccc4F)CCOCC3)cs2)CC1` [Compound 112], the IC50 in experiment [1] (setting [7]) is over 1000 nM; in experiment [2] (setting [8]), under 1000 nM.

With `CN1CCN(c2nc(C3(c4cccc(Cl)c4)CCOCC3)cs2)CC1` [Compound 63], the IC50 in experiment [1] (setting [4]), in experiment [2] (setting [5]) and in experiment [3] (setting [6]) was over 1000 nM in each case.

Regarding `CN1CCCC1CCNc1nc(C2(c3ccccc3F)CCCCC2)cs1` (single isomer, unassigned) [Compound 130, {4-[1-(2-fluorophenyl)-cyclohexyl]-thiazol-2-yl}-[2-(1-methyl-pyrrolidin-2-yl)-ethyl]-amine], the IC50 in experiment [1] (setting [7]) was over 1000 nM; in experiment [2] (setting [8]) it was over 1000 nM; in experiment [3] (setting [9]), under 100 nM.

Regarding `CN1CCN(c2nc(C3(c4csc5ccc(Cl)cc45)CCOCC3)cs2)CC1` [Compound 36], the IC50 in experiment [1] (setting [4]), in experiment [2] (setting [5]) and in experiment [3] (setting [6]) was over 1000 nM throughout.

On to `CN1CCN(c2nc(C3(c4ccccc4F)CCCC3)cs2)CC1` [Compound 93], for which the IC50 in experiment [1] (setting [4]) is under 500 nM; in experiment [2] (setting [5]) it was under 500 nM; in experiment [3] (setting [6]), under 1000 nM.

As to `CN1CCN(c2nc(C3(c4ccccc4F)CCCCC3)cs2)CC1` [Compound 83], the IC50 is under 1000 nM in experiment [1] (setting [4]), under 500 nM in experiment [2] (setting [5]) and over 1000 nM in experiment [3] (setting [6]).

As for `CN1CCN(c2nc(C3(c4ccccc4)CCOCC3)cs2)CC1` [Compound 59], the IC50 is over 1000 nM in experiment [1]; over 1000 nM in experiment [2]; over 1000 nM in experiment [3] (IC50 (nM) 5-HT2a, human 5-HT2a, Example 16 table).
